Results on three molecules are retold here after BindingDB's records for doi:10.1016/j.bmcl.2006.03.040 (Merck Research Laboratories, 2006).

The IC50 is the concentration needed to halve the response being measured. High values mean lower potency, low ones higher potency.

Assay [1] deals with Kinesin-like protein KIF11 (Homo sapiens, UniProt P52732). The assay can be described thus: Kinesin ATPase In Vitro Assay. The settings on record: pH 7; 23 °C. The procedure: The kinesin motor domain is incubated with microtubules, 1 mM ATP (1: 1 MgCl2 : Na-ATP), and compound at 23°C in buffer. After reaction was terminated, free ph osphate from the ATP hydrolysis reaction is measured via a quinaldine red/ammoni um molybdate assay. The absorbance of the phospho-molybdate complex is […] Human poly-histidine tagged KSP motor domain was cloned, and protein was expressed in E. coli.

In assay [2] the target is Potassium voltage-gated channel subfamily H member 2 (Homo sapiens, UniProt Q12809). The assay can be described thus: hERG Radioligand Competition Assay. The settings on record: pH 7.4; 22 °C. The procedure: The hERG IC50 values were determined by radioligand competition experiments using membrane preparations from human embryonic kidney cells that stably express hERG.
In general terms: The hERG channel carries a current that helps repolarise heart muscle cells.

Sequence of Kinesin-like protein KIF11 (P52732 whole entry, looked up, the tested form may be a part): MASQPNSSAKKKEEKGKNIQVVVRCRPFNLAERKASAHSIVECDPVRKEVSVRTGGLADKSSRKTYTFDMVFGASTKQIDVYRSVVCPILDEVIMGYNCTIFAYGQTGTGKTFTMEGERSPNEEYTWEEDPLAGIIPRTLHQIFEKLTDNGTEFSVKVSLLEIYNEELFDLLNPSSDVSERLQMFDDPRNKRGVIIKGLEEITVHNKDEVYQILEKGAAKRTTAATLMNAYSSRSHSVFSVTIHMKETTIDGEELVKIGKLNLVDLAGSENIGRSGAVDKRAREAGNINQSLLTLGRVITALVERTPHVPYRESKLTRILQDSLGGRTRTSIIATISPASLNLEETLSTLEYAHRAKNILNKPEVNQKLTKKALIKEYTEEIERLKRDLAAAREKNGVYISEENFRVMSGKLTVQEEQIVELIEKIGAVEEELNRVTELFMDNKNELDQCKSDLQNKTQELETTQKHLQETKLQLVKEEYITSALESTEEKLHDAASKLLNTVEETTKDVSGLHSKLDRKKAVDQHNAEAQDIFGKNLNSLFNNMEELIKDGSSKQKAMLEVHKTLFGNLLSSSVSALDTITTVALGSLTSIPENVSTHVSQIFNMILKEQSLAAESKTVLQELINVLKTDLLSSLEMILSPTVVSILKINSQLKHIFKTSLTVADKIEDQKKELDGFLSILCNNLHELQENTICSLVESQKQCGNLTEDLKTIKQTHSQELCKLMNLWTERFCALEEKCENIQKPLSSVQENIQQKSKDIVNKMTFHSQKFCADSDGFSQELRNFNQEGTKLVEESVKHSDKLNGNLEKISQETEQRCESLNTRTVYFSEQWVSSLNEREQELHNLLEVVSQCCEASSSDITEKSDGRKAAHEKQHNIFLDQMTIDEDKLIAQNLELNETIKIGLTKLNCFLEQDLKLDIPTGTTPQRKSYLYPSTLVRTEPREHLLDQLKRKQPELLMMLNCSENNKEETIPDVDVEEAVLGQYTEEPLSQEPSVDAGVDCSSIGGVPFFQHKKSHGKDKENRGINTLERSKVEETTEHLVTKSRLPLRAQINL
Sequence of Potassium voltage-gated channel subfamily H member 2 (Q12809 whole entry): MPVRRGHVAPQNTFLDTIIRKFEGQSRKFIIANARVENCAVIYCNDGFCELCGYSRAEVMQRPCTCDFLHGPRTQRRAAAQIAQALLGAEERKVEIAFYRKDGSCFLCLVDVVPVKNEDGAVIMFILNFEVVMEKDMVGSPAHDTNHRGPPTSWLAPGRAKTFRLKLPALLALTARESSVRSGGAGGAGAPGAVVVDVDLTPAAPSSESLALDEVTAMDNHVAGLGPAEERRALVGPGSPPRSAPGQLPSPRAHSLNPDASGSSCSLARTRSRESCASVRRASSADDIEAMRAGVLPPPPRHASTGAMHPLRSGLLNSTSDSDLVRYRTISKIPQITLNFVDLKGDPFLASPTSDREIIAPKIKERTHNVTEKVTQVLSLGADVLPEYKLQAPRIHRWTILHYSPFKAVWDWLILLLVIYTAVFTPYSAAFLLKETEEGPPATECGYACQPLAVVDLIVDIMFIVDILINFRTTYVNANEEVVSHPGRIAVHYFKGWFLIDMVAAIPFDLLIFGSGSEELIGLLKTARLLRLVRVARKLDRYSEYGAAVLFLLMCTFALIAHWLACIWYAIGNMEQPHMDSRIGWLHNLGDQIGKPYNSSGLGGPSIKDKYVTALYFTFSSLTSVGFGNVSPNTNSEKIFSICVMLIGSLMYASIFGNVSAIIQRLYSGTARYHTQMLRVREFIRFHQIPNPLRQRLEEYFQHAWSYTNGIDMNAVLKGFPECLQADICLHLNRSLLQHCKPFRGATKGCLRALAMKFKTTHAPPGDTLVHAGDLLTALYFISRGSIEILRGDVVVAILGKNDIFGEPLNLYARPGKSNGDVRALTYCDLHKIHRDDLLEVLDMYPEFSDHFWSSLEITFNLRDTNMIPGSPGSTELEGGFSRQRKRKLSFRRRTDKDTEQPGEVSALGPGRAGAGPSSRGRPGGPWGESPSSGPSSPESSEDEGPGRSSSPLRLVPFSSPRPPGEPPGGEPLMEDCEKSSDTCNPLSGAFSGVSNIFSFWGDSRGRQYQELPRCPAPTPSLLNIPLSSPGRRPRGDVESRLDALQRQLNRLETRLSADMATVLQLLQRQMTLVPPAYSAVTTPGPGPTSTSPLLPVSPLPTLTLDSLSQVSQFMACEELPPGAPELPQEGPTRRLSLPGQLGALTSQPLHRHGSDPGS

`CNC(=O)N1N=C(c2cc(F)ccc2F)CC1c1ccccc1` (stereo not drawn) yielded a half-maximal inhibitory concentration (IC50) in assay [1] of 3.14 µM.

Consider `CC(=O)N1N=C(c2ccccc2Cl)C[C@H]1c1cccc(O)c1` [1-[(5S)-3-(2-chlorophenyl)-5-(3-hydroxyphenyl)-4,5-dihydro-1H-pyrazol-1-yl]ethan-1-one], for which inhibition in assay [1] was half-maximal at 0.45 µM (IC50). On to `CN(C)C(=O)N1N=C(c2cc(F)ccc2F)C[C@@]1(CCCN)c1ccccc1` [(5S)-5-(3-aminopropyl)-3-(2,5-difluorophenyl)-N,N-dimethyl-5-phenyl-4,5-dihydro-1H-pyrazole-1-carboxamide], for which the half-maximal inhibitory concentration (IC50) in assay [2] turned out to be 19.3 µM.
